The results in this text go back to PMC10973839, “CHF6297: a novel potent and selective p38 MAPK inhibitor with robust anti-inflammatory activity and suitable for inhaled pulmonary administration as dry powder” (Frontiers in Pharmacology, 2024).

Each structure is given as a SMILES string. Like-named read-outs stand apart in the source and are kept apart here.

Series [1] addresses T1, human p38δ (Homo sapiens, UniProt O15264).
T1 construct: GST; purchased Invitrogen
T1 sequence (O15264 1-365): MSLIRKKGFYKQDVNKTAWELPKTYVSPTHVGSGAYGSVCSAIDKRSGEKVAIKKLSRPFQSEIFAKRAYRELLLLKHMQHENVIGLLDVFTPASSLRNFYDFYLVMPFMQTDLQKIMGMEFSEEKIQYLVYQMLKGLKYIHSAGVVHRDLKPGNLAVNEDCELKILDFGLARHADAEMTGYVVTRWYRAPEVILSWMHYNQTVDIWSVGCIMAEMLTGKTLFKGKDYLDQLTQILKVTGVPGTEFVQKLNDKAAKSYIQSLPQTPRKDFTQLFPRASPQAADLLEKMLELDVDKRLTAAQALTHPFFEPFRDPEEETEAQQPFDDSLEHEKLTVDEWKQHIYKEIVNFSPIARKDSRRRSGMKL
Kind of series: AlphaScreen kinase activity assay, human p38δ. It counts as biochemical. As for the experimental part:
The inhibitory activity of CHF6297 was determined using an AlphaScreen® (PerkinElmer)-based kinase activity assay as previously described ([Armani et al., 2022]). Kinase reactions consisted of 25 mM 4-(2-hydroxyethyl)-1-piperazine ethanesulfonic acid (HEPES), pH 7.5; 10 mM MgCl2; 100 μM Na3VO4; 2 mM DTT; 0.05 mg/mL Tween^TM 20; 100 pM solution of p38α, p38β, p38δ, or p38γ (Invitrogen); 1% DMSO; and 0.3 μg/mL ATF-2 fusion protein (New England Biolabs). Compounds were incubated under these conditions for 2 h, at 25°C, prior to the initiation of kinase activity by the addition of 250 μM ATP. […] Detection was performed by measuring luminescence following the addition of AlphaScreen donor beads (PerkinElmer, 6765300) and Protein A AlphaScreen acceptor beads (PerkinElmer, 6760137), both at a final concentration of 20 μg/mL. IC50 values were determined from concentration–response curves. […]
CHF6297 was tested in biochemical enzymatic assays to determine its potency as an inhibitor of human p38α (MAPK14) and of the other human p38 isoforms, p38β (MAPK11), p38γ ([…]), and p38δ ([…]) ([Armani et al., 2022]). Activity in the primary screening assay was determined using AlphaScreen technology, in which a peptide (ATF2) is phosphorylated by the appropriate GST-tagged p38 protein isoform in the presence of CHF6297 at concentrations from semi-logarithmic dilutions. […]
On the technique in general: Alpha assays give light when donor and acceptor beads are brought close together.

Series [2] concerns the target rat p38α (Rattus norvegicus, UniProt P70618). Kind of series: AlphaScreen kinase activity assay, rat p38α. The class given is biochemical.
Series [3] addresses T2, human p38β (Homo sapiens, UniProt Q15759).
T2 construct: purchased DiscoverX
Kind of series: KINOMEscan competition binding assay (DiscoverX), p38β. Particulars: read-out: Kd (mean ± s.d.). The text has this: The KINOMEscan® platform (DiscoverX) was used, which uses a novel and proprietary active site-directed competition binding assay to quantitatively measure the interactions between human p38 isoforms and the target compound.

Series [4] has as its system IAV-induced airway neutrophilia in HDM-challenged mice. As to the kind of experiment: Influenza virus A (H3N2)-induced exacerbation in HDM-sensitized mice. It counts as in vivo, Balb/c mice.
The subject of series [5] is i.v. LPS-induced TNF-α in blood. Kind of series: Intravenous LPS-induced TNF-α release in rat blood. It counts as in vivo, rats. Particulars: 0.3 mg/kg lactose-blended dry powder via inhalation, 2 h before i.v. LPS (0.3 mg/kg).
Series [6] in a line: Inhalation pharmacokinetics in rats. It counts as in vivo, male Wistar rats. Conditions: for Lung Cmax: 30-min nose-only inhalation; for Plasma Tmax: IAD: immediately after dosing; for Lung Tmax: IAD: immediately after dosing (5 min after end of exposure); for half-life: lung, read-out: Lung t1/2 (converted); for Cmax / AUC(0-t): plasma; for AUC(0-t): read-out: Plasma AUClast. As for the experimental part: Inhalation pharmacokinetics (PK) of CHF6297 as micronised dry powder blended with lactose 20% w/w was investigated in male Wistar rats at 2 dose levels (0.1 and 1 mg/kg) using the nose-only inhalation delivery system (Figure 8). For each PK study, 21 rats were placed in suitable plastic restrainers and connected to the inhalation tower. Inhalation system parameters were set to achieve a nominal dose of 0.1 mg/kg and 1 mg/kg in 30 min of exposure. The particle size and actual dose are given in Supplementary Material (Table 2). At the end of the inhalation period, the animals were returned to their cages. […] Then, lung samples were immediately excised, externally washed with cold saline, accurately weighed, homogenized using a temperature-controlled Precellys homogenizer (Bertin Technologies, France), and stored at −80 °C until analysis.
Plasma and lung samples were analyzed by using an HPLC-MS/MS system, consisting of a 4000 QTRAP mass spectrometer (AB Sciex LLC, Framingham, MA, United States) with an electrospray ionization (ESI) source, coupled to an Agilent 1100 HPLC (Agilent Technologies, Santa Clara, CA, United States). Analyte separation was performed using a Gemini C18 column (Phenomenex Inc., Torrance, CA, United States) and water with 0.1% v/v AcOH in the gradient with acetonitrile with 0.1% v/v AcOH as eluents. Sample preparation was performed by protein precipitation using preassembled filtration devices (Mini-UniPrep Syringeless Filters, 0.45 µm PTFE, Whatman, GE Healthcare, Buckinghamshire, United Kingdom). Aliquots of 50 μL of the sample (plasma or homogenate) were transferred to the bottom part of the device, spiked with 10 μL of the appropriate internal standard solution, and 150 μL of acetonitrile was added. The calibration and quality control samples were prepared by adding 10 µL of the CHF6297 working standard solution in acetonitrile to 50 µL of the blank matrix. After vortex mixing, the obtained mixture was filtered by manual compression of the device, and the filtered solution was diluted with 100 μL of water. The Mini-UniPrep devices were directly placed in the autosampler rack of the HPLC system. Pharmacokinetic evaluation and parameter determination (Cmax, Tmax, AUClast, and t1/2) were performed with Phoenix 64 software (Certara, New Jersey, United States) using non-compartmental analysis. Since the actual dose was within ±5% of the nominal one, the nominal dose was used for PK calculation.

The mark [7] stands for this setting: n = 3, read-out: IC50 (mean ± s.d.).
The mark [8] stands for this setting: male, Wistar, rat, inhaled or intranasal, 0.1 mg/kg.
Where [9] appears, read: male, Wistar, rat, inhaled or intranasal, 1.0 mg/kg.

In general, IC50 refers to the point on the concentration scale where inhibition reaches its midpoint. Broadly, the Kd is the free concentration of one partner at which half of the binding sites on the other are occupied at equilibrium, for simple one-to-one binding. As usually defined, the Cmax is the peak of the concentration-time curve.

rat p38α, sequence (P70618 whole entry): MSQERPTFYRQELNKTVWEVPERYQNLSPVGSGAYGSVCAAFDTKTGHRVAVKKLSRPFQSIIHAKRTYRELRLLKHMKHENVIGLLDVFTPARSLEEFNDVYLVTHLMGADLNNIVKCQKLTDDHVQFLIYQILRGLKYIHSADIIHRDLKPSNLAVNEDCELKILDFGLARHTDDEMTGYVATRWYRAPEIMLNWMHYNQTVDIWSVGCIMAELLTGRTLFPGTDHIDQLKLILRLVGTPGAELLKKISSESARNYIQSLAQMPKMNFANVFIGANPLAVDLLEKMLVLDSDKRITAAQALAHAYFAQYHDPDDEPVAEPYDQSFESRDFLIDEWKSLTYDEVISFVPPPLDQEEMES
T2 sequence (Q15759 whole entry): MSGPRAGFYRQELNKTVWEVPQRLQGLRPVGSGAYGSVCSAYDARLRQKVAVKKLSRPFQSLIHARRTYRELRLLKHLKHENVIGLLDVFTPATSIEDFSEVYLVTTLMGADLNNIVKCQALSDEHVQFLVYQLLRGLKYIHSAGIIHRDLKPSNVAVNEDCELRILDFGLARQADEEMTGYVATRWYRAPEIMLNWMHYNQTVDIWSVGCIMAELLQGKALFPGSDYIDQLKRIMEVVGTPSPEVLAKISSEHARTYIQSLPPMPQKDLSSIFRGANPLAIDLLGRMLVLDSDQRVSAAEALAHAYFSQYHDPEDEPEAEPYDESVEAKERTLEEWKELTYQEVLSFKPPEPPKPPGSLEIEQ

For `C[C@H]1CCCCN1c1nnc2ccc(O[C@@H]3CC[C@H](NC(=O)Nc4cc(C(C)(C)C)nn4-c4cnn(CCN(C)C)c4)c4ccccc43)cn12` [CHF6297], the “IC50 fold-difference vs. human p38α” value in series [1] is >7,000; in series [2], 3.5. Also, the IC50 is above 1000 nM in series [1] (setting [7]) and 0.5 ± 0.18 nM in series [2] (setting [7]). Further, the Kd in series [3] came out at 1.11 ± 0.6 nM. Also, the figures for the “neutrophils in BAL fluid” value in series [4] (30 μg/kg i.n. twice daily for 3 days) and in series [4] (100 μg/kg twice daily for 3 days) were 2.78 ± 0.28 × 10^5 cells/mL and 1.29 ± 0.119 × 10^5 cells/mL, respectively. The “effect on TNF-α levels in blood” value in series [5] is given as “no significant inhibition of TNF-α levels”. Moreover, the “Lung AUClast” value in series [6] (0.1 mg/kg) is reported as 42,097 h*ng/g. Besides, the “Lung Cmax” value in series [6] (0.1 mg/kg) is 7,187 ng/g; in series [6] (1.0 mg/kg), 54,000 ng/g. In addition, the “Plasma Tmax” value in series [6] (0.1 mg/kg) and in series [6] (1.0 mg/kg) was “IAD” each time. For the same molecule, the “Lung Tmax” value in series [6] (0.1 mg/kg) and in series [6] (1.0 mg/kg) was “IAD” in each case. In addition, the half-life is 10.2 h in series [6] (setting [8]); 10.2 h in series [6] (setting [9]); 10 h in series [6] (male, Wistar, rat, inhaled, 0.1 mg/kg); 10 h in series [6] (male, Wistar, rat, inhaled, 1.0 mg/kg). Further, in series [6] (male, Wistar, rat, lung/plasma, inhaled, at the two dose levels (0.1 and 1 mg/kg), read-out: lung/plasma ratio (AUClast lung / AUClast plasma)), the Kp is around 6000. Besides, the Cmax in series [6] (setting [8]) turned out to be 2.77 ng/mL; in series [6] (setting [9]), 20.6 ng/mL. Besides, the AUC(0-t) stood at 7.32 ng·h/mL in series [6] (setting [8]) and 60.1 ng·h/mL in series [6] (setting [9]).
